Measured values published in ChEMBL document CHEMBL5120880, “Peptidomimetics: An Overview of Recent Medicinal Chemistry Efforts toward the Discovery of Novel Small Molecule Inhibitors” (J Med Chem, 2022).
Converted amounts (≈) assume the structure as drawn.

Key:
[1] = system: Pseudomonas aeruginosa; assay: Antimicrobial activity against Pseudomonas aeruginosa KCTC 1637 assessed as minimal inhibitory concentration incubated for 18 hrs; assay type: functional
[2] = system: Staphylococcus aureus; assay: Antimicrobial activity against Staphylococcus aureus KCTC 1621 assessed as minimal inhibitory concentration incubated for 18 hrs; assay type: functional
[3] = system: Escherichia coli; assay: Antimicrobial activity against Escherichia coli KCTC 1682 assessed as minimal inhibitory concentration incubated for 18 hrs; assay type: functional
[4] = system: Staphylococcus epidermidis; assay: Antimicrobial activity against Staphylococcus epidermidis KCTC 1917 assessed as minimal inhibitory concentration incubated for 18 hrs; assay type: functional
[5] = system: Staphylococcus aureus; assay: Antibacterial activity against Staphylococcus aureus MRSA assessed as minimal inhibitory concentration incubated for 24 hrs; assay type: functional
[6] = system: Staphylococcus aureus; assay: Antibacterial activity against Staphylococcus aureus assessed as minimal inhibitory concentration incubated for 24 hrs; assay type: functional
[7] = system: Salmonella enterica; assay: Antibacterial activity against Salmonella enterica assessed as minimal inhibitory concentration incubated for 24 hrs; assay type: functional
[8] = system: Escherichia coli; assay: Antibacterial activity against Escherichia coli assessed as minimal inhibitory concentration incubated for 24 hrs; assay type: functional
[9] = system: Bacillus subtilis; assay: Antibacterial activity against Bacillus subtilis assessed as minimal inhibitory concentration incubated for 72 hrs; assay type: functional
[10] = system: Middle East respiratory syndrome-related coronavirus; assay: microbe, parasite or virus in culture
[11] = system: SARS-CoV-2; assay: microbe, parasite or virus in culture; settings: Severe acute respiratory syndrome coronavirus 2
[12] = system: Feline infectious peritonitis virus; assay: microbe, parasite or virus in culture; settings: Alphacoronavirus 1
[13] = system: Murine hepatitis virus; assay: microbe, parasite or virus in culture; settings: Murine coronavirus
[14] = system: SARS-CoV; assay: microbe, parasite or virus in culture; settings: Severe acute respiratory syndrome-related coronavirus
[15] = system: Middle East respiratory syndrome-related coronavirus; assay: Antiviral activity against MERS-CoV by cell based assay; assay type: functional, organism-based
[16] = system: Mycolicibacterium phlei; assay: Antibacterial activity against Mycobacterium phlei DSM750 assessed as minimal inhibitory concentration by microdilution assay; assay type: functional
[17] = system: Salmonella typhimurium; assay: Antibacterial activity against Salmonella typhimurium TA100 assessed as minimal inhibitory concentration by microdilution assay; assay type: functional, Salmonella enterica subsp. enterica serovar Typhimurium; settings: Salmonella enterica
[18] = system: Bacillus subtilis; assay: Antibacterial activity against Bacillus subtilis DSM10 assessed as minimal inhibitory concentration by microdilution assay; assay type: functional
[19] = system: Escherichia coli; assay: Antibacterial activity against Escherichia coli BW25113 assessed as minimal inhibitory concentration by microdilution assay; assay type: functional

CC(=O)NCCNc1nc(NCC(=O)NCCNc2nc(NCC(N)=O)nc(N(Cc3ccccc3)Cc3ccccc3)n2)nc(N(CCCN)CCCN)n1
MIC [1]: 32 µg/mL (≈ 41.5 µM) | MIC [2]: 32 µg/mL (≈ 41.5 µM) | MIC [3]: 64 µg/mL (≈ 82.9 µM) | MIC [4]: 32 µg/mL (≈ 41.5 µM)

CCCCCCCCCCCCCCCCNC(=O)[C@@H](N)Cc1ccccc1
MIC [5]: 1250 µg/mL (≈ 3220 µM) | MIC [6]: 1250 µg/mL (≈ 3220 µM) | MIC [7]: 625 µg/mL (≈ 1610 µM) | MIC [8]: 1250 µg/mL (≈ 3220 µM) | MIC [9]: 625 µg/mL (≈ 1610 µM)

CCCC1CCC(OC(=O)N[C@@H](CC(C)C)C(=O)N[C@@H](C[C@H]2CCNC2=O)C(O)S(=O)(=O)O)CC1 (stereo partly specified)
IC50 [10]: 100 nM | IC50 [11]: 1600 nM | EC50 [12]: 170 nM | EC50 [13]: 160 nM

CC(C)C[C@H](NC(=O)OCC1CCC(F)(F)CC1)C(=O)N[C@@H](C[C@H]1CCNC1=O)C(O)S(=O)(=O)O (stereo partly specified)
IC50 [10]: 100 nM | IC50 [11]: 1100 nM | EC50 [12]: 70 nM | IC50 [14]: 1100 nM | EC50 [13]: 160 nM

CC(C)C[C@H](NC(=O)OCC1CCC(F)(F)CC1)C(=O)N[C@H](C=O)C[C@H]1CCNC1=O
IC50 [11]: 900 nM | EC50 [15]: 30 nM | EC50 [12]: 80 nM

COc1c(/C=C(\F)c2ccc(NC(=O)[C@H](CC#N)NC(=O)c3ccc(NC(=O)/C(C)=C/c4ccc(O)cc4)cc3)cc2)ccc(C(=O)Nc2ccc(C(=O)O)c(O)c2OC)c1O
MIC [16]: 0.25 µg/mL (≈ 0.296 µM) | MIC [17]: 0.031 µg/mL (≈ 0.0367 µM) | MIC [18]: 0.031 µg/mL (≈ 0.0367 µM) | MIC [19]: < 0.063 µg/mL

CC(=O)NCCNc1nc(NCC(=O)NCCNc2nc(NCC(=O)NCCNc3nc(NCC(N)=O)nc(N(Cc4ccccc4)Cc4ccccc4)n3)nc(N(CCCN)CCCN)n2)nc(N(Cc2ccccc2)Cc2ccccc2)n1
MIC [1]: 32 µg/mL (≈ 27.6 µM) | MIC [2]: 64 µg/mL (≈ 55.1 µM) | MIC [3]: 128 µg/mL (≈ 110 µM) | MIC [4]: 64 µg/mL (≈ 55.1 µM)

CCCCCCCCCCCCNC(=O)[C@@H](N)C(C)CC (stereo partly specified)
MIC [5]: 4 µg/mL (≈ 13.4 µM) | MIC [6]: 2.5 µg/mL (≈ 8.37 µM) | MIC [7]: 5 µg/mL (≈ 16.7 µM) | MIC [8]: 2 µg/mL (≈ 6.7 µM) | MIC [9]: 510 µg/mL (≈ 1710 µM)

CCCCCCCCCCCCNC(=O)[C@H](N)Cc1ccccc1
MIC [5]: 20 µg/mL (≈ 60.1 µM) | MIC [6]: 5 µg/mL (≈ 15 µM) | MIC [7]: 10 µg/mL (≈ 30.1 µM) | MIC [8]: 5 µg/mL (≈ 15 µM) | MIC [9]: 8.3 µg/mL (≈ 25 µM)

COc1c(/C=C/c2ccc(NC(=O)[C@H](CC#N)NC(=O)c3ccc(NC(=O)/C(C)=C/c4ccc(O)cc4)cc3)cc2)ccc(C(=O)Nc2ccc(C(=O)O)c(O)c2OC)c1O
MIC [16]: 0.5 µg/mL (≈ 0.605 µM) | MIC [17]: 0.063 µg/mL (≈ 0.0763 µM) | MIC [18]: 0.063 µg/mL (≈ 0.0763 µM) | MIC [19]: 0.125 µg/mL (≈ 0.151 µM)

CC(C)C[C@H](NC(=O)OC1CCC(F)(F)CC1)C(=O)N[C@@H](C[C@H]1CCNC1=O)C(O)S(=O)(=O)O (stereo partly specified)
IC50 [10]: 80 nM | IC50 [11]: 1600 nM | EC50 [15]: 210 nM | EC50 [12]: 120 nM | IC50 [14]: 2200 nM | EC50 [13]: 110 nM

COc1c(NC(=O)c2ccc(-c3cc4ccc(-c5ccc(NC(=O)[C@H](CC#N)NC(=O)c6ccc(NC(=O)/C(C)=C/c7ccc(O)cc7)cc6)cc5)cc4o3)c(OC)c2O)ccc(C(=O)O)c1O
MIC [16]: 1 µg/mL (≈ 1.09 µM) | MIC [17]: 0.125 µg/mL (≈ 0.136 µM) | MIC [18]: 0.25 µg/mL (≈ 0.273 µM) | MIC [19]: 1 µg/mL (≈ 1.09 µM)

CCCCCCCCNC(=O)[C@@H](N)Cc1ccccc1
MIC [5]: 52 µg/mL (≈ 188 µM) | MIC [6]: 39 µg/mL (≈ 141 µM) | MIC [7]: 62.5 µg/mL (≈ 226 µM) | MIC [8]: 39 µg/mL (≈ 141 µM) | MIC [9]: 78 µg/mL (≈ 282 µM)

CC(=O)NCCNc1nc(NCC(=O)NCCNc2nc(NCC(=O)NCCNc3nc(NCC(N)=O)nc(N(CCCN)CCCN)n3)nc(N(Cc3ccccc3)Cc3ccccc3)n2)nc(N(CCCN)CCCN)n1
MIC [1]: 16 µg/mL (≈ 14.6 µM) | MIC [2]: 16 µg/mL (≈ 14.6 µM) | MIC [3]: 16 µg/mL (≈ 14.6 µM) | MIC [4]: 16 µg/mL (≈ 14.6 µM)

CC(=O)NCCNc1nc(NCC(=O)NCCNc2nc(NCC(=O)NCCNc3nc(NCC(=O)NCCNc4nc(NCC(N)=O)nc(N(Cc5ccccc5)Cc5ccccc5)n4)nc(N(CCCN)CCCN)n3)nc(N(Cc3ccccc3)Cc3ccccc3)n2)nc(N(CCCN)CCCN)n1
MIC [1]: 16 µg/mL (≈ 10.8 µM) | MIC [2]: 16 µg/mL (≈ 10.8 µM) | MIC [3]: 16 µg/mL (≈ 10.8 µM) | MIC [4]: 16 µg/mL (≈ 10.8 µM)

CCCCC1CCC(OC(=O)N[C@@H](CC(C)C)C(=O)N[C@@H](C[C@H]2CCNC2=O)C(O)S(=O)(=O)O)CC1 (stereo partly specified)
IC50 [10]: 130 nM | IC50 [11]: 1100 nM | EC50 [15]: 530 nM | EC50 [12]: 170 nM | IC50 [14]: 1000 nM | EC50 [13]: 130 nM

CCCCCCCCCCNC(=O)[C@@H](N)Cc1ccccc1
MIC [5]: 20 µg/mL (≈ 65.7 µM) | MIC [6]: 13.3 µg/mL (≈ 43.7 µM) | MIC [7]: 15.6 µg/mL (≈ 51.2 µM) | MIC [8]: 10 µg/mL (≈ 32.8 µM) | MIC [9]: 39 µg/mL (≈ 128 µM)

CCCCCCCCCCCCNC(=O)[C@@H](N)C(C)C
MIC [5]: 8.3 µg/mL (≈ 29.2 µM) | MIC [6]: 3.3 µg/mL (≈ 11.6 µM) | MIC [7]: 6.5 µg/mL (≈ 22.8 µM) | MIC [8]: 1.67 µg/mL (≈ 5.87 µM) | MIC [9]: 4.2 µg/mL (≈ 14.8 µM)

COc1c(NC(=O)c2ccc(-c3ccc4[nH]c(-c5ccc(NC(=O)[C@H](CC#N)NC(=O)c6ccc(NC(=O)/C(C)=C/c7ccc(O)cc7)cc6)cc5)nc4c3)c(OC)c2O)ccc(C(=O)O)c1O
MIC [16]: 8 µg/mL (≈ 8.73 µM) | MIC [17]: 0.063 µg/mL (≈ 0.0688 µM) | MIC [18]: 2 µg/mL (≈ 2.18 µM) | MIC [19]: 0.25 µg/mL (≈ 0.273 µM)
